{
  "source": "patent US3931140A",
  "about": "“(H-gly-gly-tyr-ala)^1 -somatostatin” (American Home Products Corporation, priority 1975, dated 1976)",
  "system": "growth hormone present in the plasma",
  "assay": "In vivo growth hormone in plasma of Nembutal-treated rats by radioimmunoassay",
  "details": "for growth hormone per milliliter of plasma (average): 500 micrograms per kilogram, blood sampled 15 minutes after administration, p<0.01",
  "procedure": "The in vivo activity of the heptadecapeptide of this invention was established by injecting Nembutal intraperitoneally into rats weighing between 200 to 250 grams in an amount of 50 milligrams per kilogram body weight. After five minutes, the heptadecapeptide of this invention was administered to the rats in a dose of 500 micrograms per kilogram body weight from a solution made from three milligrams of the heptadecapeptide,1.2 milliliters of water and 4.8 milliliters of polyethylene glycol (PEG 400). The rats blood was sampled 15 minutes after administration of the heptadecapeptide and the amount of growth hormone present in the plasma was determined by radioimmunoassay.",
  "data": [
    {"smiles": "C[C@H](NC(=O)[C@H](Cc1ccc(O)cc1)NC(=O)CNC(=O)CN)C(=O)NCC(=O)N[C@H]1CSSC[C@@H](C(=O)O)NC(=O)[C@H](CO)NC(=O)[C@H]([C@@H](C)O)NC(=O)[C@H](Cc2ccccc2)NC(=O)[C@H]([C@@H](C)O)NC(=O)[C@H](CCCCN)NC(=O)[C@H](Cc2c[nH]c3ccccc23)NC(=O)[C@H](Cc2ccccc2)NC(=O)[C@H](Cc2ccccc2)NC(=O)[C@H](CC(N)=O)NC(=O)[C@H](CCCCN)NC1=O", "note": "[heptadecapeptide, Glycyl-glycyl-L-tyrosyl-L-alanyl-glycyl-L-cysteinyl-L-lysyl-L-asparaginyl-L-phenylalanyl-L-phenylalanyl-L-tryptophyl-L-lysyl-L-threonyl-L-phenylalanyl-L-threonyl-L-seryl-L-cysteine[6-17 cyclic disulfide]]", "values": [
      {"measurement": "growth hormone per milliliter of plasma (average)", "setting": "another experiment, twelve rats for control and testing, control 66 ± 10", "value": "21 ± 7 nanograms growth hormone per milliliter of plasma"},
      {"measurement": "activity in reducing growth hormone concentrations in blood plasma compared with somatostatin", "setting": "comparison with somatostatin, in words", "value": "exceeds the activity of somatostatin"},
      {"measurement": "growth hormone per milliliter of plasma (average)", "setting": "first determination, eight treated rats, Nembutal 50 mg/kg i.p., control 86 ± 15", "value": "9 ± 4 nanograms growth hormone per milliliter of plasma"}
    ]}
  ]
}
